Measured values taken from US20210255193A1, “LYSINE REACTIVE PROBES AND USES THEREOF” (The Scripps Research Institute, priority 2017, published 2021).

Columns and labels:
Test in all cases: competitive isoTOP-ABPP
Type in all cases: binding
[1] = target: T1, ERAP1 Endoplasmic reticulum aminopeptidase 1 (Homo sapiens, UniProt Q9NZ08); settings: 50 uM, 231 sol, in vitro; for R value (DMSO/fragment) for probe 1 labeling: Q9NZ08_K685
T1 construct: endogenous in cells; host or cells: MDA-MB-231 lysate
Protocol: (§1) In vitro covalent fragment treatment for isoTOP-ABPP. All compounds were made up as solutions in DMSO (100×) and were used at a final concentration of 50 μM for activated esters and 100 μM for guanidinylating agents. For each profiling sample, 0.5 ml of lysate was treated with 5 μl of the 100× compound stock solution or 5 μl of DMSO. Samples were treated with activated esters for
(§2) STP-alkyne labeling and click chemistry. For concentration-dependent reactivity measurements by isoTOP-ABPP, 0.5 ml proteome aliquots were treated at ambient temperature with 1 mM STP-alkyne 1 (5 μl of 100 mM stock in DMSO) and 0.1 mM STP alkyne 1 (5 μl of 10 mM stock in DMSO), respectively. For competitive isoTOP-ABPP, after in vitro fragment treatment (detailed above), the samples were labeled for 1 h at ambient temperature with 0.1 mM STP-alkyne 1 (5 μl of 10 mM stock in DMSO). Samples were conjugated by copper-mediated azide-alkyne cycloaddition (CuAAC) to either the light (1 mM STP-alkyne or fragment treated) or heavy (0.1 mM STP-alkyne or DMSO treated) TEV tags (10 μl of 5 mM stocks in DMSO, final concentration=100 μM) using tris(2-carboxyethyl)phosphine hydrochloride
(§3) R value calculation and processing. The ratios of light and heavy MS1 peaks for each unique peptide were quantified with a CIMAGE software using default parameters (3 MS1 acquisitions per peak and signal to noise threshold set to 2.5). For reactivity measurements by isoTOP-ABPP, the R value was calculated from the ratio of MS1 peak areas, comparing the 1 mM STP alkyne sample (light TEV tag) with the 0.1 mM STP alkyne sample (heavy TEV tag). For competitive isoTOP-ABPP, the R value was calculated from the ratio of MS1 peak areas, comparing the DMSO treated sample (heavy TEV tag) with the compound treated sample (light TEV tag). […] Ratios for unique peptide entries are calculated for each experiment; overlapping peptides with the same modified lysine (for example, different charge states, MudPIT chromatographic steps or tryptic termini) are grouped together and the median ratio is reported as the final ratio (R). The peptide ratios reported by CIMAGE were further filtered to ensure the removal or correction of low-quality ratios in each individual data set. The quality filters applied were the following: removal of half tryptic peptides; for ratios with high standard deviations from the median (90% of the median or above) the lowest ratio was taken instead of the median; removal of peptides with R=20 and only a single MS2 event triggered during the elution of the parent ion; manual annotation of all the peptides with ratios of 20, removing any peptides with low quality elution profiles that remained after the previous curation steps (only done for competitive isoTOP-ABPP).
(§4) Cross-data processing for fragment screening. For compound treated samples, biological replicates of the same condition were averaged, if the standard deviation was below 60% of the mean; otherwise, for lysines with at least one R value <4 for a particular compound, the lowest value of the ratio set was taken. For lysines, where all R values for a particular compound were ≥4, the average was reported. For peptides containing several possible modified lysines, the lysine with the highest number of quantification events was used for analysis and the remaining, redundant peptides were reported as alternative modification sites. Peptides included in the aggregate dataset (those used for further bioinformatics and statistical analyses) were required to have been quantified in 2 experiments for competitive isoTOP-ABPP. Lysines were categorized as liganded, if they had at least one ratio R≥4 (hit fragments). For liganded lysines with R=20 for all liganding events, lysines were required to have been quantified with R=20 in two separate experiments and were further required to have been quantified with R<20 in one additional experiment.

[2] = target: T2, GLOD4 Glyoxalase domain-containing protein 4 (Homo sapiens, UniProt Q9HC38); settings: 50 uM, in vitro; for R value (DMSO/fragment) for probe 1 labeling: Q9HC38_K305; for R value (DMSO/fragment) for probe 1 labeling / isoTOP-ABPP reactivity ratio at lysine Q9HC38_K305: 231 sol
T2 construct: endogenous in cells; host or cells: MDA-MB-231 (soluble fraction of lysate)
T2 sequence (Q9HC38 1-313): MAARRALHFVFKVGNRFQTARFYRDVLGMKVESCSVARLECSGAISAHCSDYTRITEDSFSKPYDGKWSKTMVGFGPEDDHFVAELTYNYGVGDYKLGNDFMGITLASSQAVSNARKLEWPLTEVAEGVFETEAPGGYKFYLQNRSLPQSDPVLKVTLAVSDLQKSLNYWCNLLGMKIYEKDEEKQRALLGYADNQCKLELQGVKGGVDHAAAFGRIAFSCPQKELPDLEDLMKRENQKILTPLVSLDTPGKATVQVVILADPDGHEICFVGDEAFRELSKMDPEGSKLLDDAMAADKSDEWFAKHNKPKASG
Protocol: as §1, §2, §3, §4

[3] = target: T3, GSTT2B Glutathione S-transferase theta-2B (Homo sapiens, UniProt P0CG30); settings: 50 uM, in vitro; for R value (DMSO/fragment) for probe 1 labeling: P0CG30_K53; for R value (DMSO/fragment) for probe 1 labeling / isoTOP-ABPP reactivity ratio at lysine P0CG30_K53: 231 sol
T3 construct: isoTOP-ABPP experiments performed in cell lysates (in vitro); endogenous in cells; host or cells: MDA-MB-231 soluble lysate
T3 sequence (P0CG30 1-244): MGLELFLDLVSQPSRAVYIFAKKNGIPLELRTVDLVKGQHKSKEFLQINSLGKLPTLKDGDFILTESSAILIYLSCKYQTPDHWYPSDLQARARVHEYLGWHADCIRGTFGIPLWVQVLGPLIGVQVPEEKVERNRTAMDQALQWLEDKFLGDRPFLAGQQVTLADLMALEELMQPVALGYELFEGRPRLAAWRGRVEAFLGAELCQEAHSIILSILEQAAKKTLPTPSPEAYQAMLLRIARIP
Protocol: as §1, §2, §3, §4

[4] = target: T4, MRPS24 28S ribosomal protein S24, mitochondrial (Homo sapiens, UniProt Q96EL2); settings: 50 uM, in vitro; for R value (DMSO/fragment) for probe 1 labeling: Q96EL2_K94; for R value (DMSO/fragment) for probe 1 labeling / isoTOP-ABPP reactivity ratio at lysine Q96EL2_K94: 231 sol
T4 construct: isoTOP-ABPP experiments performed in cell lysates (in vitro); endogenous in cells; host or cells: soluble proteome of human cancer cell lines (MDA-MB-231; Ramos and Jurkat also prepared)
Protocol: as §1, §2, §3, §4

[5] = target: T5, ISOC2 Isochorismatase domain-containing protein 2, mitochondrial (Homo sapiens, UniProt Q96AB3); parameters: key to isoTOP-ABPP reactivity ratio at lysine Q96AB3_K178: R = MS1 peak area ratio, DMSO (heavy) / compound-treated (light); capped at 20; settings: 50 uM, in vitro; for R value (DMSO/fragment) for probe 1 labeling: Q96AB3_K178; for R value (DMSO/fragment) for probe 1 labeling / isoTOP-ABPP reactivity ratio at lysine Q96AB3_K178: 231 sol
T5 construct: isoTOP-ABPP experiments performed in cell lysates (in vitro); endogenous in cells; host or cells: soluble proteome of human cancer cell lines (MDA-MB-231; Ramos and Jurkat also prepared)
T5 sequence (Q96AB3 1-205): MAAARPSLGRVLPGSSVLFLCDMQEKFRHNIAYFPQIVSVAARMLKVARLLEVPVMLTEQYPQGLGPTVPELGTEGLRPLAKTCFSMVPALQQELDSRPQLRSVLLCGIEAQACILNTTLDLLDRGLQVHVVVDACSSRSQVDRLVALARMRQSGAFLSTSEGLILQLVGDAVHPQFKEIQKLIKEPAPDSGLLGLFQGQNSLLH
Protocol: as §1, §2, §3, §4

[6] = target: T6, MAP1LC3B Microtubule-associated proteins 1A/1B light chain (Homo sapiens, UniProt Q9GZQ8); parameters: key to isoTOP-ABPP reactivity ratio at lysine Q9GZQ8_K51: R = MS1 peak area ratio, DMSO (heavy) / compound-treated (light); settings: 50 uM, in vitro; for R value (DMSO/fragment) for probe 1 labeling: Q9GZQ8_K51; for R value (DMSO/fragment) for probe 1 labeling / isoTOP-ABPP reactivity ratio at lysine Q9GZQ8_K51: 231 sol
T6 construct: isoTOP-ABPP experiments performed in cell lysates (in vitro); endogenous in cells; host or cells: soluble proteome of human cancer cell lines (MDA-MB-231; Ramos and Jurkat also prepared)
Protocol: as §1, §2, §3, §4

T1 sequence (Q9NZ08 whole entry, the tested form may be a part): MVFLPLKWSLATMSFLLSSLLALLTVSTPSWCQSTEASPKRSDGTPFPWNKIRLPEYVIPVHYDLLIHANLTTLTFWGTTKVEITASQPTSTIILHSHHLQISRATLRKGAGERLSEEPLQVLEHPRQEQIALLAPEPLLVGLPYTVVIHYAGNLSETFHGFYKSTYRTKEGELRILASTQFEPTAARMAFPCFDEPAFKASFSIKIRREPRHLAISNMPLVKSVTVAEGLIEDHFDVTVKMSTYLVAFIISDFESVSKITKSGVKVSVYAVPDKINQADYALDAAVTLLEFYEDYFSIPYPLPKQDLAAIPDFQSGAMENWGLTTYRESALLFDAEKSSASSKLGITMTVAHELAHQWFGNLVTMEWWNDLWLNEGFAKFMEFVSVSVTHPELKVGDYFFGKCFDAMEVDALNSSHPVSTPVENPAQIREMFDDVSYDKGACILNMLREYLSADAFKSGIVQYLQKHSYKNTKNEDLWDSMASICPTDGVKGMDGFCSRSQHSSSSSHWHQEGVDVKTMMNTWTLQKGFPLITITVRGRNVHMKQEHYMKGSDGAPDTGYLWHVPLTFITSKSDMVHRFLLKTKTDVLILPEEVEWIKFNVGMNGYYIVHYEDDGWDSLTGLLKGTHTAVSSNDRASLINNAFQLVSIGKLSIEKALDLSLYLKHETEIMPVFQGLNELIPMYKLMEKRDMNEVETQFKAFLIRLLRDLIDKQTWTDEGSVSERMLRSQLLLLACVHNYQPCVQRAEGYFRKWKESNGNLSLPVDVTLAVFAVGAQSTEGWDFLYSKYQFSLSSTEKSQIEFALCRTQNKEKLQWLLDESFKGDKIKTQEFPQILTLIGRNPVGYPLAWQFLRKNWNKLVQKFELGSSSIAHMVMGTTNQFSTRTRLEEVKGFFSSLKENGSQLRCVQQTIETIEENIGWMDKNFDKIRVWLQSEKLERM

Row | R value (DMSO/fragment) for probe 1 labeling [1] | R value (DMSO/fragment) for probe 1 labeling [2] | R value (DMSO/fragment) for probe 1 labeling [3] | R value (DMSO/fragment) for probe 1 labeling [4] | R value (DMSO/fragment) for probe 1 labeling [5] | R value (DMSO/fragment) for probe 1 labeling [6] | SMILES | isoTOP-ABPP reactivity ratio at lysine Q9NZ08_K685 [1] | isoTOP-ABPP reactivity ratio at lysine Q9HC38_K305 [2] | isoTOP-ABPP reactivity ratio at lysine P0CG30_K53 [3] | isoTOP-ABPP reactivity ratio at lysine Q96EL2_K94 [4] | isoTOP-ABPP reactivity ratio at lysine Q96AB3_K178 [5] | isoTOP-ABPP reactivity ratio at lysine Q9GZQ8_K51 [6] | also measured
1 | 1.1 | 0.9 | 1.0 | 1.4 | 1.2 | 1.0 | O=C(CCc1cn(-c2ccccc2)nc1-c1ccccc1)Oc1c(F)c(F)c(F)c(F)c1F [fragment 19, Pentafluorophenyl 3-(1,3-diphenyl-1H-pyrazol-4-yl)propanoate] |  |  |  |  |  |  | 
2 | 1.5 | 0.8 | 1.0 | 0.9 | 0.9 | 0.9 | O=C(Oc1c(F)c(F)c(F)c(F)c1F)C(c1ccccc1)c1ccccc1 [fragment 20, Pentafluorophenyl 2,2-diphenylacetate] |  |  |  |  |  |  | 
3 | 2.2 | 0.7 | 1.0 | 1.6 | 1.0 | 1.2 | Cn1cc(CC(=O)Oc2c(F)c(F)c(F)c(F)c2F)c2ccccc21 [fragment 22, Pentafluorophenyl 2-(1-methyl-1H-indol-3-yl)acetate] |  |  |  |  |  |  | 
4 | 1.7 | 0.9 | 0.9 | 2.1 | 1.2 | 0.7 | COc1cc(CCC(=O)Oc2c(F)c(F)c(F)c(F)c2F)cc(OC)c1OC [fragment 23, Pentafluorophenyl 3-(3,4,5-trimethoxyphenyl)propanoate] |  |  |  |  |  |  | 

The remaining lines, values behind:

Row | SMILES | R value (DMSO/fragment) for probe 1 labeling [1] | R value (DMSO/fragment) for probe 1 labeling [2] | R value (DMSO/fragment) for probe 1 labeling [3] | R value (DMSO/fragment) for probe 1 labeling [4] | R value (DMSO/fragment) for probe 1 labeling [5] | R value (DMSO/fragment) for probe 1 labeling [6] | isoTOP-ABPP reactivity ratio at lysine Q9NZ08_K685 [1] | isoTOP-ABPP reactivity ratio at lysine Q9HC38_K305 [2] | isoTOP-ABPP reactivity ratio at lysine P0CG30_K53 [3] | isoTOP-ABPP reactivity ratio at lysine Q96EL2_K94 [4] | isoTOP-ABPP reactivity ratio at lysine Q96AB3_K178 [5] | isoTOP-ABPP reactivity ratio at lysine Q9GZQ8_K51 [6] | also measured
5 | O=C(Oc1c(F)c(F)c(F)c(F)c1F)c1ccc2ccccc2n1 [fragment 25, Pentafluorophenyl quinoline-2-carboxylate] |  |  |  |  |  |  | 1.9 | 0.4 | 1.0 | 1.3 | 1.4 | 0.9 | 
6 | O=C(CN1C(=O)c2ccccc2C1=O)Oc1c(F)c(F)c(F)c(F)c1F [fragment 27, Pentafluorophenyl 2-(1,3-dioxoisoindolin-2-yl)acetate] |  |  |  |  |  |  | 5.7 | 0.5 | 0.9 | 2.0 | 1.3 | 1.0 | 
7 | CCn1cc(C(=O)Oc2c(F)c(F)c(F)c(F)c2F)c(=O)c2ccc(C)nc21 [fragment 28, Pentafluorophenyl 1-ethyl-7-methyl-4-oxo-1,4-dihydro-1,8-naphthyridine-3-carboxylate] |  |  |  |  |  |  | 1.4 | 1.0 | 1.0 | 1.0 | 1.8 | 1.0 | 
8 | O=C(CCc1cn(-c2ccccc2)nc1-c1ccccc1)Oc1ccc([N+](=O)[O-])cc1[N+](=O)[O-] [fragment 29, 2,4-Dinitrophenyl 3-(1,3-diphenyl-1H-pyrazol-4-yl)propanoate] |  |  |  |  |  |  | 1.0 | 0.9 | 0.7 | 2.2 | 1.7 | 0.8 | 
9 | O=C(Oc1ccc([N+](=O)[O-])cc1[N+](=O)[O-])c1cc(C(F)(F)F)cc(C(F)(F)F)c1 [fragment 31, 2,4-Dinitrophenyl 3,5-bis(trifluoromethyl)benzoate] |  |  |  |  |  |  | 1.6 | 0.5 | 0.8 | 1.6 | 2.1 | 1.1 | 
10 | COc1cc(CCC(=O)Oc2ccc([N+](=O)[O-])cc2[N+](=O)[O-])cc(OC)c1OC [fragment 33, 2,4-Dinitrophenyl 3-(3,4,5-trimethoxyphenyl)propanoate] |  |  |  |  |  |  | 1.0 | 0.4 | 0.5 | 1.4 | 9.1 | 0.8 | 
11 | O=C(Oc1ccc([N+](=O)[O-])cc1[N+](=O)[O-])c1ccc2ccccc2n1 [fragment 35, 2,4-Dinitrophenyl quinoline-2-carboxylate] |  |  |  |  |  |  |  |  |  |  |  |  | isoTOP-ABPP ratio (R) at liganded lysine Q9HC38_K305 ([2]; sol, 231): 0.4; isoTOP-ABPP ratio (R) at liganded lysine P0CG30_K53 ([3]; sol, 231): 4.1; isoTOP-ABPP ratio (R) at liganded lysine Q96EL2_K94 ([4]; sol, 231): 1.3; isoTOP-ABPP ratio (R) at liganded lysine Q96AB3_K178 ([5]; sol, 231): 1.3; isoTOP-ABPP ratio (R) at liganded lysine Q9GZQ8_K51 ([6]; sol, 231): 1.0
